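The compound was tested at five concentrations on cells cultured in 96-well plates, with a 48-hour exposure period. TGI: total growth inhibition.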

Holding throughout (assay): NCI anticancer screen, dose series, 48 h
Assay [1] concerns UO-31 renal.
For assay [2], the system named is UACC-257 melanoma.
Assay [3] deals with SK-MEL-28 melanoma.
Assay [4] has as its system ACHN renal.
Assay [5] concerns SK-OV-3 ovarian.
Assay [6] deals with U251 CNS.
Assay [7] relates to CAKI-1 renal.
Assay [8] has as its system HOP-62 NSCLC.
Assay [9] concerns CCRF-CEM leukemia.
Assay [10] concerns HCT-15 colon.
Assay [11] has as its system OVCAR-4 ovarian.
Assay [12] concerns SF-295 CNS.
For assay [13], the system named is NCI-H23 lung.
Assay [14] relates to A498 renal.
Assay [15] relates to MCF7 breast.
For assay [16], the system named is T-47D breast.
Assay [17] concerns LOX IMVI melanoma.
Assay [18] deals with SW-620 colon.
Assay [19] has as its system IGROV1 ovarian.
Assay [20] has as its system MOLT-4 leukemia.

Consider `CCCCCCCCCCCCCC(=O)OCC(CCS(=O)(=O)O[C@H]1CC[C@@]2(C)C(=CC[C@@H]3C2CC[C@]2(C)C(=O)CCC32)C1)OC(=O)CCCCCCCCCCCCC` (some centres not stated), for which the TGI in assay [1], in assay [2], in assay [3], in assay [4], in assay [5] and in assay [6] was more than 100 µM in each case. Besides, the TGI in [7], in [8], in assay [9], in [10], in [11] and in [12] was more than 100 µM each time. For the same compound, the TGI in assay [13], in assay [14], in assay [15], in assay [16], in [17] and in [18] was more than 100 µM each time. In addition, the TGI in assay [19] is more than 100 µM.

Take `COc1ccc(/C(=N/OCCCC(=O)O)c2cccs2)cc1`: the TGI in [1], in assay [2], in assay [4], in [5], in [6] and in [7] was more than 100 µM throughout. The TGI in [8], in assay [9], in [10], in assay [11], in assay [12] and in assay [20] was more than 100 µM each time. Moreover, the TGI in [13], in [14], in [15], in assay [16], in [17] and in [18] was more than 100 µM each time.

On to `C[C@@H](c1ccccc1)N1C[C@@H](c2ccc3c(c2)OCO3)[C@@H]2C(=O)CCC[C@@H]21`, for which the TGI in [1] is more than 100 µM; in assay [2] it was more than 100 µM; in assay [3], 76 µM; in assay [4], 67.2 µM; in [5], more than 100 µM; in assay [6], more than 100 µM. Further, the TGI in assay [7], in [8], in assay [9], in assay [10], in assay [11] and in assay [12] was more than 100 µM each time. The TGI in [20] was 77.6 µM; in assay [13] it was more than 100 µM; in [14] it was 59.1 µM; in assay [15] it was 71.5 µM; in assay [16] it was more than 100 µM; in assay [17], more than 100 µM. For the same compound, the TGI in [19] was more than 100 µM.

For the compound `C[C@H](CCC(=O)O)[C@H]1CC[C@H]2[C@@H]3[C@H](O)[C@H](O)[C@@H]4C[C@H](O)CC[C@]4(C)[C@H]3CC[C@]12C`, the TGI in assay [1], in [2], in assay [3], in assay [4], in assay [6] and in assay [7] was more than 100 µM each time. Further, the TGI in assay [8], in [9], in assay [10], in assay [11], in assay [20] and in assay [13] was more than 100 µM in each case. In addition, the TGI in assay [14], in assay [15], in [16], in [17], in assay [18] and in assay [19] was more than 100 µM throughout.

On to `Cc1cn(C(CO)OC(CO)CN(O)C2C3CC4CC(C3)CC2C4)c(=O)[nH]c1=O` (configuration not stated), for which the TGI in [1], in assay [2], in assay [3], in assay [4], in assay [5] and in assay [6] was more than 100 µM in each case. Also, the TGI in assay [7], in assay [8], in assay [10], in assay [11], in [12] and in [20] was more than 100 µM each time. In addition, the TGI in assay [13], in assay [14], in [15], in [16], in assay [18] and in assay [19] was more than 100 µM each time.

In the case of `C[C@H](CCC(=O)O)[C@H]1CC[C@H]2[C@@H]3[C@@H](O)C[C@@H]4C[C@H](O)CC[C@]4(C)[C@H]3C[C@H](O)[C@]12C`, the TGI in assay [2], in assay [3], in assay [4], in assay [6], in [7] and in assay [8] was more than 100 µM each time. The TGI in assay [9], in assay [10], in assay [11], in assay [20], in assay [13] and in assay [14] was more than 100 µM each time. For the same compound, the TGI in [15], in assay [16], in assay [17], in assay [18] and in assay [19] was more than 100 µM each time.

As for `COP(=O)(/C=C/C(NC(=O)C(Cl)(Cl)Cl)c1ccccc1)OC` (configuration not stated), the TGI in assay [1], in assay [2], in [3], in assay [4], in assay [5] and in assay [6] was more than 100 µM each time. For the same compound, the TGI in assay [7], in [8], in [10], in [11], in assay [12] and in [20] was more than 100 µM throughout. Besides, the TGI in assay [13], in assay [14], in assay [15], in [16], in assay [17] and in assay [18] was more than 100 µM throughout. The TGI in assay [19] is more than 100 µM.

Regarding `CS(=O)(=O)c1ccc(C(=O)O[C@@H]2C(=O)N3CC[C@H]4OC(O)[C@@H]2[C@H]43)cc1` (some centres not stated), the TGI in assay [1], in [2], in assay [3], in [4], in [5] and in assay [6] was more than 100 µM throughout. The TGI in assay [7], in assay [8], in assay [10], in [11], in assay [12] and in assay [20] was more than 100 µM throughout. For the same compound, the TGI in assay [13], in assay [14], in [15], in assay [16], in [17] and in [18] was more than 100 µM in each case.

In the case of `O=C1C=CC(=O)c2c(O)c(NCCN3CCOCC3)c(Cl)c(O)c21`, the TGI is 3.96 µM in [1]; 4.56 µM in assay [2]; 2.98 µM in [3]; 7.51 µM in [4]; more than 10 µM in assay [5]; 6.97 µM in [6]. Moreover, the TGI in [7] was 3.25 µM; in assay [8] it was 3.72 µM; in assay [9], 4.46 µM; in assay [10] it was 3.87 µM; in assay [11] it was 3.22 µM; in [12], 3.41 µM. For the same compound, the TGI in [20] is 3.89 µM; in [14], more than 10 µM; in assay [15] it was 2.96 µM; in assay [16] it was 4.51 µM; in [17] it was 2.85 µM; in assay [18] it was 2.91 µM. Moreover, in assay [19], the TGI is 3.72 µM.

For `O=C(O)CN1CCN2CCCCCCCCN(CC1)CCN(CC(=O)O)CC2`, the TGI in assay [1], in assay [2], in assay [3], in [4], in assay [5] and in assay [6] was more than 100 µM throughout. The TGI in assay [7], in assay [8], in assay [9], in assay [10], in assay [11] and in assay [12] was more than 100 µM in each case. Moreover, the TGI in [20], in [14], in assay [15], in assay [16], in assay [17] and in assay [18] was more than 100 µM in each case. The compound further showed a TGI in assay [19] of more than 100 µM.

With `CC1CN=C(N(C(=O)Nc2ccc(Cl)cc2)c2cccc(Cl)c2)S1` (configuration not stated), the TGI in assay [1], in assay [2], in assay [3], in assay [4], in assay [5] and in assay [6] was more than 100 µM in each case. In addition, the TGI in [7], in assay [8], in [9], in assay [10], in [11] and in assay [12] was more than 100 µM each time. Moreover, the TGI in [13] was more than 100 µM; in assay [14], 91.8 µM; in [15], more than 100 µM; in assay [16] it was more than 100 µM; in assay [17], more than 100 µM; in assay [18], more than 100 µM. Besides, the TGI in assay [19] was more than 100 µM.

For `COc1ccccc1N1C(=O)CSC1c1cccc(Oc2ccccc2)c1` (configuration not stated), the TGI in assay [1] was 32.9 µM; in [2], 33.6 µM; in [3], 34.6 µM; in [4] it was 38.2 µM; in assay [5], more than 100 µM; in assay [6] it was 30.7 µM. For the same compound, the TGI in assay [7] is 74.5 µM; in assay [8], 45.7 µM; in [9], more than 100 µM; in assay [10], 37.4 µM; in assay [11], 39.6 µM; in assay [12], 41.1 µM. Moreover, the TGI amounted to 64.8 µM in assay [20]; 52.9 µM in [13]; 36.6 µM in assay [14]; 37.1 µM in assay [15]; 58.1 µM in assay [16]; 32.4 µM in assay [17]. Further, the TGI in [18] turned out to be 56.6 µM.

Consider `CCOC(=O)c1ccc(Nc2nc3ccccc3n3cccc23)cc1`, for which the TGI in assay [1] is more than 100 µM; in assay [2], more than 100 µM; in assay [3], more than 100 µM; in assay [4], more than 100 µM; in [5], 92.4 µM; in assay [6] it was 98 µM. Further, the TGI in assay [7] was more than 100 µM; in assay [8], 75.7 µM; in assay [9], 0.108 µM; in assay [10] it was more than 100 µM; in [12] it was more than 100 µM; in [20] it was more than 100 µM. Moreover, the TGI in assay [13] was more than 100 µM; in [14], more than 100 µM; in assay [15] it was more than 100 µM; in assay [16], 47.7 µM; in [17], more than 100 µM; in [18], more than 100 µM. The TGI in assay [19] is more than 100 µM.

Consider `C[n+]1c2ccccc2n2c3ccccc3c(NCc3ccco3)c(C#N)c21`, for which the TGI in assay [1] came out at 7.63 µM; in assay [2] it was 57.4 µM; in [3], 5.75 µM; in assay [4] it was 9.08 µM; in assay [5], 39.8 µM; in [6], 13 µM. For the same compound, the TGI amounted to 7.36 µM in [7]; 11.4 µM in assay [8]; 4.34 µM in [10]; 10.7 µM in assay [11]; 16.6 µM in assay [12]; 8.92 µM in [13]. Further, the TGI in assay [14] was 20.4 µM; in assay [15], 11.9 µM; in [16], more than 28.7 µM; in assay [17], 3.65 µM; in assay [18], 4.01 µM.

Regarding `Cc1cc(OP2(=O)NCc3ccncc3O2)ccc1Cl` (configuration not stated), the TGI in assay [1], in assay [2], in assay [3], in assay [4], in assay [6] and in assay [7] was more than 100 µM each time. Moreover, the TGI in [8], in assay [9], in assay [10], in [11], in assay [12] and in assay [20] was more than 100 µM throughout. The TGI in assay [13], in assay [14], in assay [15], in assay [16], in [17] and in assay [18] was more than 100 µM each time. The TGI in [19] is more than 100 µM.

Source of the values: PubChem BioAssay (NCI).
